Key:
[1] = system: HCV replicon RNA (GenBank Accession No. AJ242654); experiment: HCV Replicon Assay (replicon RNA reduction and/or Fluc reporter signal); format: cell-based, Hepatitis C virus; settings: Hepatitis C virus, 72 h, replicon-containing cells cultured with test compound for up to 3 days
In short: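 IC50 values mostly reflect the drop in replicon RNA, though Fluc reporter signal may also be used. Compound incubated with cells carrying the bicistronic replicon for as long as 3 days; interferon served as positive control.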

Row | SMILES | IC50 [1] | melting point
1 | CC(C)(C)NS(=O)(=O)c1ccc(-c2c(C#N)c3cc(C4CC4)cnc3n2C2CCC2)cc1 [Cpd 125, N-tert-butyl-4-(3-cyano-1-cyclobutyl-5-cyclopropyl-1H-pyrrolo[2,3-b]pyridin-2-yl)benzenesulfonamide] | < 500 nM | 210 to 215 °C
2 | CC1(NS(=O)(=O)c2ccc(-c3c(C#N)c4cc(C5CC5)cnc4n3C3CCC3)cc2)CC1 [Cpd 127, 4-(3-cyano-1-cyclobutyl-5-cyclopropyl-1H-pyrrolo[2,3-b]pyridin-2-yl)-N-(1-methylcyclopropyl)benzenesulfonamide] | < 500 nM | 152 to 161 °C
3 | CC1(NS(=O)(=O)c2ccc(-c3c(C#N)c4cc(C5CC5)cnc4n3C3CCC3)nc2)CC1 [Cpd 128, 6-(3-cyano-1-cyclobutyl-5-cyclopropyl-1H-pyrrolo[2,3-b]pyridin-2-yl)-N-(1-methylcyclopropyl)pyridine-3-sulfonamide] | < 500 nM | 178 to 185 °C
4 | CC1(NS(=O)(=O)c2cnc(-c3c(C#N)c4cc(C5CC5)cnc4n3C3CCC3)nc2)CC1 [Cpd 129, 2-(3-cyano-1-cyclobutyl-5-cyclopropyl-1H-pyrrolo[2,3-b]pyridin-2-yl)-N-(1-methylcyclopropyl)pyrimidine-5-sulfonamide] | < 500 nM | 161 to 169 °C
5 | N#Cc1c(-c2ccc(S(=O)(=O)NC(CF)CF)cc2)n(C2CCC2)c2ncc(C3CC3)cc12 [Cpd 130, 4-(3-cyano-1-cyclobutyl-5-cyclopropyl-1H-pyrrolo[2,3-b]pyridin-2-yl)-N-(1,3-difluoropropan-2-yl)benzenesulfonamide] | < 500 nM | 225 to 230 °C
6 | N#Cc1c(-c2ncc(S(=O)(=O)NC(CF)CF)cn2)n(C2CCC2)c2ncc(C3CC3)cc12 [Cpd 132, 2-(3-cyano-1-cyclobutyl-5-cyclopropyl-1H-pyrrolo[2,3-b]pyridin-2-yl)-N-(1,3-difluoropropan-2-yl)pyrimidine-5-sulfonamide] | < 500 nM | 189 to 197 °C
7 | N#Cc1c(-c2ccc(S(=O)(=O)NC3CC3)cn2)n(C2CCC2)c2ncc(C3CC3)cc12 [Cpd 133, 6-(3-cyano-1-cyclobutyl-5-cyclopropyl-1H-pyrrolo[2,3-b]pyridin-2-yl)-N-cyclopropylpyridine-3-sulfonamide] | < 500 nM | 169 to 174 °C
8 | N#Cc1c(-c2ccc(S(=O)(=O)NC3CCC3)cn2)n(C2CCC2)c2ncc(C3CC3)cc12 [Cpd 134, 6-(3-cyano-1-cyclobutyl-5-cyclopropyl-1H-pyrrolo[2,3-b]pyridin-2-yl)-N-cyclobutylpyridine-3-sulfonamide] | < 500 nM | 189 to 197 °C
9 | CC(C)NS(=O)(=O)c1cnc(-c2c(C#N)c3cc(C4CC4)cnc3n2C2CCC2)nc1 [Cpd 136, 2-(3-cyano-1-cyclobutyl-5-cyclopropyl-1H-pyrrolo[2,3-b]pyridin-2-yl)-N-(propan-2-yl)pyrimidine-5-sulfonamide] | < 500 nM | 187 to 195 °C
10 | Cc1ccc2c(C#N)c(-c3ncc(S(=O)(=O)N[C@@H](C)C(F)(F)F)cn3)n(C3CCC3)c2n1 [Cpd 137, 2-(3-cyano-1-cyclobutyl-6-methyl-1H-pyrrolo[2,3-b]pyridin-2-yl)-N-[(2S)-1,1,1-trifluoropropan-2-yl]pyrimidine-5-sulfonamide] | < 500 nM | 207 to 212 °C
11 | Cc1ccc2c(C#N)c(-c3ncc(S(=O)(=O)N[C@H](C)C(F)(F)F)cn3)n(C3CCC3)c2n1 [Cpd 138, 2-(3-cyano-1-cyclobutyl-6-methyl-1H-pyrrolo[2,3-b]pyridin-2-yl)-N-[(2R)-1,1,1-trifluoropropan-2-yl]pyrimidine-5-sulfonamide] | 500 to 2000 nM | 205 to 209 °C
12 | Cc1ccc2c(C#N)c(-c3ccc(S(=O)(=O)NC4(C(F)(F)F)CC4)cc3)n(C3CCC3)c2n1 [Cpd 140, 4-(3-cyano-1-cyclobutyl-6-methyl-1H-pyrrolo[2,3-b]pyridin-2-yl)-N-[1-(trifluoromethyl)cyclopropyl]benzenesulfonamide] | 500 to 2000 nM | 205 to 212 °C
13 | Cc1ccc2c(C#N)c(-c3ccc(S(=O)(=O)NC(C)(C)C)cc3)n(C3CCC3)c2n1 [Cpd 141, N-tert-butyl-4-(3-cyano-1-cyclobutyl-6-methyl-1H-pyrrolo[2,3-b]pyridin-2-yl)benzenesulfonamide] | 500 to 2000 nM | 194 to 200 °C
14 | Cc1ccc2c(C#N)c(-c3ccc(S(=O)(=O)NC(C)(C)C)cn3)n(C3CCC3)c2n1 [Cpd 142, N-tert-butyl-6-(3-cyano-1-cyclobutyl-6-methyl-1H-pyrrolo[2,3-b]pyridin-2-yl)pyridine-3-sulfonamide] | < 500 nM | 181 to 187 °C
15 | Cc1ccc2c(C#N)c(-c3ccc(S(=O)(=O)NC4(C)CC4)cc3)n(C3CCC3)c2n1 [Cpd 143, 4-(3-cyano-1-cyclobutyl-6-methyl-1H-pyrrolo[2,3-b]pyridin-2-yl)-N-(1-methylcyclopropyl)benzenesulfonamide] | < 500 nM | 200 to 207 °C
16 | Cc1ccc2c(C#N)c(-c3ncc(S(=O)(=O)NC4(C)CC4)cn3)n(C3CCC3)c2n1 [Cpd 144, 2-(3-cyano-1-cyclobutyl-6-methyl-1H-pyrrolo[2,3-b]pyridin-2-yl)-N-(1-methylcyclopropyl)pyrimidine-5-sulfonamide] | < 500 nM | 224 to 232 °C
17 | Cc1ccc2c(C#N)c(-c3ccc(S(=O)(=O)NC(CF)CF)cc3)n(C3CCC3)c2n1 [Cpd 145, 4-(3-cyano-1-cyclobutyl-6-methyl-1H-pyrrolo[2,3-b]pyridin-2-yl)-N-(1,3-difluoropropan-2-yl)benzenesulfonamide] | < 500 nM | 182 to 193 °C
18 | Cc1ccc2c(C#N)c(-c3ccc(S(=O)(=O)NC(CF)CF)cn3)n(C3CCC3)c2n1 [Cpd 146, 6-(3-cyano-1-cyclobutyl-6-methyl-1H-pyrrolo[2,3-b]pyridin-2-yl)-N-(1,3-difluoropropan-2-yl)pyridine-3-sulfonamide] | < 500 nM | 180 to 188 °C
19 | Cc1ccc2c(C#N)c(-c3ncc(S(=O)(=O)NC(CF)CF)cn3)n(C3CCC3)c2n1 [Cpd 147, 2-(3-cyano-1-cyclobutyl-6-methyl-1H-pyrrolo[2,3-b]pyridin-2-yl)-N-(1,3-difluoropropan-2-yl)pyrimidine-5-sulfonamide] | < 500 nM | 211 to 217 °C
20 | Cc1ccc2c(C#N)c(-c3ccc(S(=O)(=O)NC4CCC4)cn3)n(C3CCC3)c2n1 [Cpd 148, 6-(3-cyano-1-cyclobutyl-6-methyl-1H-pyrrolo[2,3-b]pyridin-2-yl)-N-cyclobutylpyridine-3-sulfonamide] | < 500 nM | 151 to 160 °C
21 | C[C@H](NS(=O)(=O)c1ccc(-c2c(C#N)c3ccc(C4CC4)nc3n2C2CCC2)nc1)C(F)(F)F [Cpd 151, 6-(3-cyano-1-cyclobutyl-6-cyclopropyl-1H-pyrrolo[2,3-b]pyridin-2-yl)-N-[(2S)-1,1,1-trifluoropropan-2-yl]pyridine-3-sulfonamide] | < 500 nM | 170 to 176 °C
22 | C[C@@H](NS(=O)(=O)c1ccc(-c2c(C#N)c3ccc(C4CC4)nc3n2C2CCC2)nc1)C(F)(F)F [Cpd 152, 6-(3-cyano-1-cyclobutyl-6-cyclopropyl-1H-pyrrolo[2,3-b]pyridin-2-yl)-N-[(2R)-1,1,1-trifluoropropan-2-yl]pyridine-3-sulfonamide] | < 500 nM | 170 to 176 °C
23 | C[C@@H](NS(=O)(=O)c1cnc(-c2c(C#N)c3ccc(C4CC4)nc3n2C2CCC2)nc1)C(F)(F)F [Cpd 154, 2-(3-cyano-1-cyclobutyl-6-cyclopropyl-1H-pyrrolo[2,3-b]pyridin-2-yl)-N-[(2R)-1,1,1-trifluoropropan-2-yl]pyrimidine-5-sulfonamide] | < 500 nM | 244 to 249 °C
24 | CCc1cnc2c(c1)c(C#N)c(-c1ccc(S(=O)(=O)N[C@@H](C)C(F)(F)F)cc1)n2C1CCC1 [Cpd 155, 4-(3-cyano-1-cyclobutyl-5-ethyl-1H-pyrrolo[2,3-b]pyridin-2-yl)-N-[(2S)-1,1,1-trifluoropropan-2-yl]benzenesulfonamide] | < 500 nM | 194 to 201 °C
25 | CCc1cnc2c(c1)c(C#N)c(-c1ccc(S(=O)(=O)N[C@H](C)C(F)(F)F)cc1)n2C1CCC1 [Cpd 156, 4-(3-cyano-1-cyclobutyl-5-ethyl-1H-pyrrolo[2,3-b]pyridin-2-yl)-N-[(2R)-1,1,1-trifluoropropan-2-yl]benzenesulfonamide] | 500 to 2000 nM | 194 to 201 °C
26 | C[C@H](NS(=O)(=O)c1ccc(-c2c(C#N)c3ccc(Cl)nc3n2C2CCC2)nc1)C(F)(F)F [Cpd 161, 6-(6-chloro-3-cyano-1-cyclobutyl-1H-pyrrolo[2,3-b]pyridin-2-yl)-N-[(2S)-1,1,1-trifluoropropan-2-yl]pyridine-3-sulfonamide] | < 500 nM | 172 to 178 °C
27 | C[C@@H](NS(=O)(=O)c1ccc(-c2c(C#N)c3ccc(Cl)nc3n2C2CCC2)nc1)C(F)(F)F [Cpd 162, 6-(6-chloro-3-cyano-1-cyclobutyl-1H-pyrrolo[2,3-b]pyridin-2-yl)-N-[(2R)-1,1,1-trifluoropropan-2-yl]pyridine-3-sulfonamide] | < 500 nM | 172 to 178 °C
28 | Cc1ncc2c(C#N)c(-c3ccc(S(=O)(=O)N[C@@H](C)C(F)(F)F)cn3)n(C3CCCC3)c2n1 [Cpd 163, 6-(5-cyano-7-cyclopentyl-2-methyl-7H-pyrrolo[2,3-d]pyrimidin-6-yl)-N-[(2S)-1,1,1-trifluoropropan-2-yl]pyridine-3-sulfonamide] | 500 to 2000 nM | 212 to 215 °C
29 | Cc1ncc2c(C#N)c(-c3ccc(S(=O)(=O)N[C@@H](C)C(F)(F)F)cc3)n(C3CCCC3)c2n1 [Cpd 164, 4-(5-cyano-7-cyclopentyl-2-methyl-7H-pyrrolo[2,3-d]pyrimidin-6-yl)-N-[(2S)-1,1,1-trifluoropropan-2-yl]benzenesulfonamide] | 500 to 2000 nM | 202 to 204 °C

Reference: patent US9593108B2, “Compounds and methods for antiviral treatment” (PTC Therapeutics, Inc., priority 2009, dated 2017)
